In patent US9839642B2, “Beta-tetrazolyl-propionic acids as metallo-beta-lactamase inhibitors” (priority 2014, dated 2017):
Like-named read-outs stand apart in the source and are kept apart here.

Experiments:
[1] = test system: Klebsiella pneumoniae expressing VIM-1 (IHMA599644); test: Antibiotic potentiation activity: synergistic concentration (MITC95) with imipenem, growth by OD600; type: cell-based
Outline: (§1)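 Strains grown overnight at 35° C, resuspended in saline, diluted 1:100 into 1.1×CAMHB; imipenem at 1 μg/ml or 4 μg/ml with test compound 200 μM to 0.195 μM. Incubated 22 hours to 24 hours at 35° C, OD600 read; MITC95 is lowest compound concentration inhibiting 95% of growth.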

[2] = test system: Escherichia coli expressing NDM-1 (CLB30016); test: as above; type: cell-based
Outline: as §1

[3] = test system: Serratia marcescens expressing IMP-1 (CL5741); test: as above; type: cell-based
Outline: as §1

VIM-1 = VIM-1 (Pseudomonas aeruginosa, UniProt A0A0F7KYQ8); test: Enzyme activity: determination of IC50, fluorescence assay with CCF2-FA substrate; type: biochemical; conditions: CCF2-FA 1.25 μM, 2 hours at 25° C., read-out: VIM1 IC50
Outline: (§2)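 Enzyme (1 pM NDM-1, 2 pM IMP-1, 30 pM VIM-1) incubated with inhibitor (20 to 0.00063 μM) and 1.25 μM CCF2-FA in 100 mM KH2PO4 pH 7, 0.005% Tween-20, 10 μM ZnSO4, 2 h at 25 °C. Fluorescence read at 460 nm (ex 405 nm); IC50 by 4-parameter fit.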

NDM-1 = NDM-1 (Klebsiella pneumoniae, UniProt C7C422); test: as above; type: biochemical; conditions: CCF2-FA 1.25 μM, 2 hours at 25° C., read-out: NDM1 IC50
Outline: as §2

IMP-1 = IMP-1 (Serratia marcescens, UniProt P52699); test: as above; type: biochemical; conditions: CCF2-FA 1.25 μM, 2 hours at 25° C., read-out: IMP1 IC50
Outline: as §2

[4] = 95% inhibition of bacterial growth, strain IHMA599644
[5] = 95% inhibition of bacterial growth, strain CLB30016
[6] = 95% inhibition of bacterial growth, strain CL5741
[7] = K. pneumoniae IHMA599644 (VIM-1), 95% inhibition of growth
[8] = E. coli CLB30016 (NDM-1), 95% inhibition of growth
[9] = S. marcescens CL5741 (IMP-1), 95% inhibition of growth

Chain of IMP-1 (P52699 19-246, looked up, species assumed): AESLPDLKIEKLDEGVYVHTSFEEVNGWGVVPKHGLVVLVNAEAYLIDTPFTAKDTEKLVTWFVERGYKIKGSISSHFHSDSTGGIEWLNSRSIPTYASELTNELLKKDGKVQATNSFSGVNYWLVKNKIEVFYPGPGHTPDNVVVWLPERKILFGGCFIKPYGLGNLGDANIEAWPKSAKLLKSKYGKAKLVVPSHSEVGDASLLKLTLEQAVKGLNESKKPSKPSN
Chain of NDM-1 (C7C422 29-270, looked up, species assumed): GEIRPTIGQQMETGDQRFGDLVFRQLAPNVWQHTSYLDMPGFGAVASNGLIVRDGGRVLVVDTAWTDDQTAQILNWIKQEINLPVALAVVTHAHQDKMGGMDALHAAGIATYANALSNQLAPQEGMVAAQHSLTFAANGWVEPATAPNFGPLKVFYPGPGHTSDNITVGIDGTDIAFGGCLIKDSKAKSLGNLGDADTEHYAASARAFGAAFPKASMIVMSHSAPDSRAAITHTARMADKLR

SMILES | VIM1 KP599644 MITC95 [1, 4] [µM] | NDM1 EC30016 MITC95 [2, 5] [µM] | IMP1 SM5741 MITC95 [3, 6] [µM] | IC50 (VIM-1; enzyme 30 pM) [nM] | IC50 (NDM-1; enzyme 1 pM) [nM] | IC50 (IMP-1; enzyme 2 pM) [nM] | VIM1 KP599644 MITC95 [1, 7] [µM] | NDM1 EC30016 MITC95 [2, 8] [µM] | IMP1 SM5741 MITC95 [3, 9] [µM] | IC50 (VIM-1; VIM-1 enzyme 30 pM) [nM] | IC50 (NDM-1; NDM-1 enzyme 1 pM) [nM] | IC50 (IMP-1; IMP-1 enzyme 2 pM) [nM]
Cc1cc(C[C@H](c2nnn[nH]2)[C@@H](C(=O)O)C(C)C)ccc1C1=CCNC1 [Example 68, (2S,3S)-4-(4-(2,5-dihydro-1H-pyrrol-3-yl)-3-methylphenyl)-2-isopropyl-3-(1H-tetrazol-5-yl)butanoic acid] | 6.2 | 4.7 | 12.5 | 0.79 | 24 | 1100 |  |  |  |  |  | 
CCC[C@H](C(=O)O)[C@H](Cc1ccc(C2CCN(C(=N)N)CC2)cc1)c1nnn[nH]1 [Example 296, (S)-2-((S)-2-(4-(1-carbamimidoylpiperidin-4-yl)phenyl)-1-(1H-tetrazol-5-yl)ethyl)pentanoic acid] |  |  |  |  |  |  | 12.5 | 4.7 | 6.2 | 21 | 32 | 180
CC(C)C[C@H](C(=O)O)[C@H](Cc1ccc(CCN)c(F)c1)c1nn[nH]n1.O=C(O)C(F)(F)F [Example 445, 2-(4-((2S,3S)-3-carboxy-5-methyl-2-(2H-tetrazol-5-yl)hexyl)-2-fluorophenyl)ethanaminium 2,2,2-trifluoroacetate] |  |  |  |  |  |  | 12.5 | 9.375 | 25 | 1.98 | 281 | 693
CCC[C@H](C(=O)O)[C@H](Cc1ccc(-c2ccc3ccnc(C#N)c3c2)nc1)c1nnn[nH]1 [Example 162, (2S)-2-[(1S)-2-[6-(1-cyanoisoquinolin-7-yl)pyridin-3-yl]-1-(1H-tetrazol-5-yl)ethyl]pentanoic acid] | 125 | 75 | 12.5 | 3.7 | 22 | 560 |  |  |  |  |  | 
CC(C)[C@H](C(=O)O)[C@H](CC1CCNCC1)c1nnn[nH]1 [Example 89, (2S,3S)-2-isopropyl-4-(piperidin-4-yl)-3-(1H-tetrazol-5-yl)butanoic acid] | 37.5 | 18.8 | >200 | 2100 | 18000 | > 20000 |  |  |  |  |  | 
CC(C)C[C@H](C(=O)O)[C@H](Cc1ccc(NCCC(N)C(F)(F)F)nc1)c1nnn[nH]1 (stereo partly drawn) [Example 320, (2S)-2-[(1S)-2-{6-[(3-amino-4,4,4-trifluorobutyl)amino]pyridin-3-yl}-1-(1H-tetrazol-5-yl)ethyl]-4-methylpentanoic acid] |  |  |  |  |  |  | 50 | 1.6 | 12.5 | 15 | 83 | 320
CC(C)C[C@H](C(=O)O)[C@H](Cc1ccc(N2CCCC2c2ccccc2)nc1)c1nnn[nH]1 (stereo partly drawn) [Example 303, (2S)-4-methyl-2-[(1S)-2-[6-(2-phenylpyrrolidin-1-yl)pyridin-3-yl]-1-(1H-tetrazol-5-yl)ethyl]pentanoic acid] |  |  |  |  |  |  | 200 | 18.8 | 4.7 | 3.9 | 14 | 96
CC(C)(C)[C@H](C(=O)O)[C@H](Cc1ccc(C2=CCNC2)nc1)c1nnn[nH]1.O=C(O)C(F)(F)F [Example 429, 3-(5-((2S,3R)-3-carboxy-4,4-dimethyl-2-(1H-tetrazol-5-yl)pentyl)pyridin-2-yl)-2,5-dihydro-1H-pyrrol-1-ium 2,2,2-trifluoroacetate] |  |  |  |  |  |  | 25 | 12.5 | 18.75 | 23.8 | 781 | 615
CCC[C@H](C(=O)O)[C@H](Cc1ccncc1)c1nnn[nH]1 [Example 88, (2S)-2-[(1S)-2-pyridin-4-yl-1-(1H-tetrazol-5-yl)ethyl]pentanoic acid] | 6.2 | 0.78 | 37.5 | 5.6 | 180 | 2000 |  |  |  |  |  | 
